Legend:
[1] = Examination of stereotypy in rats (method of Costall and Naylor); format: in vivo; set-up: Stereotypy, average score: scale not given here; details: for Stereotypy (in words): rats
Text: 3. Examination of stereotypy in rats
For the measurement of stereotypy the method of B. Costall and R. I. Naylor [Eur. J. Pharmacol. 18, 95 (1972)] was used. The score values in Table 4 are average score values obtained at the time of reading.

[2] = Motility studies on mice (spontaneous motor activity, two-hour experiment); format: in vivo, male mice; details: for Increase in motility: 2 h
Description: 1.a. Motility studies on mice
For studying how the compound prepared according to Example 1 increases the motility in male mice, two-hour experiments were carried out. In order to determine the spontaneous motor activity, the component of hunger-activitywas excluded (the mice were not fasted), thus only the exploratory activity was recorded. The test animals were placed into the observation box immediately after the intraperitoneal treatment.

[3] = Motility studies on rats (2 hours); format: in vivo, male CFY rats; details: for Increase in motility: 2 h
Description: 1.b. Motility studies on rats
Male CFY rats weighing 120 to 140 g were treated intraperitoneally in groups of three with a dose of 10, 20, 25 or 30 mg/kg of the compound of Example 1, and were immediately placed into the observation box. The experiment lasted for 2 hours.

[4] = tested on: haloperidol-induced decrease in SMA; test: Measurement of the haloperidol-antagonistic effect in mice (spontaneous motor activity, SMA); format: in vivo, male CFLP mice
Description: 2. Measurement of the haloperidol-antagonistic effect in mice
Male CFLP mice weighing 20 to 22 g were treated intraperitoneally with a dose of 0.5 mg/kg of 4-[4-(4-chlorophenyl)-4-hydroxy-1-piperidinyl]-1-(4-fluorophenyl)-1-butanone (haloperidol) and the spontaneous motor activity (SMA) was measured, in relation to the data obtained in the controls, by a capacitance-sensitive motimeter. Another group of the test animals was treated also with a dose of 30 mg/kg of the compound of Example 1, 15 minutes after the administration of haloperidol.

[5] = tested on: oxotremorine-induced tremor; test: Inhibition of oxotremorine-induced tremor in mice (method of Rathbun and Slater); format: in vivo, male CFLP mice; details: for Inhibition in relation to control group: oxotremorine 1 mg/kg i.p. 1 h later
Description: (§1) 4. Inhibition of oxotremorine in mice
(§2) The examinations were carried out according to the method of R. C. Rathbun and I. H. Slater [Psychopharm. 4, 114 (1963)]. One hour after male, starving CFLP mice were orally pre-treated with a dose of 6.25, 12.5 or 25.0 mg/kg of the compound of Example 1, they were intraperitoneally treated with a dose of 1 mg/kg of 1-[4-(1-pyrrolidinyl)-2-butinyl]-2-pyrrolidinone (oxotremorine).
(§3) The inhibition of oxotremorine-induced tremor and salivation exerted by the compound of Example 1 was measured in relation to the control group treated with oxotremorine only. The strength of the inhibition was expressed in scores (0, 0.5, 1, 2 or 3).

[6] = tested on: oxotremorine-induced salivation; test: Inhibition of oxotremorine-induced salivation in mice; format: in vivo, male CFLP mice; details: 6.25-25.0 mg/kg p.o.
Description: as §1, §2, §3

Acute toxicity in mice = details: mouse, in vivo
Text: (§4) The acute toxicity values (LD50) of the compound of Example 1: […]

Acute toxicity in rats = details: rat, in vivo
Text: as §4

Emetic side-effect = details: in vivo
[7] = Dependence studies, DAF (drug admixed food) method; details: 0.05% (w/w) in food, 6 weeks, average daily dose 40 mg/kg, two weeks after withdrawal, listed as compound of the invention

CC(C)C[C@H]1C(=O)N2CCC[C@H]2[C@]2(O)O[C@](NC(=O)[C@@H]3C=C4c5cccc6[nH]c(Br)c(c56)C[C@H]4N(C)C3)(C(C)C)C(=O)N12 [Bromocriptine, reference compound]
Stereotypy, average score ([1]; 5 mg/kg i.p., 30 min): 0.2 | Stereotypy, average score ([1]; 5 mg/kg i.p., 60 min): 0.6 | Stereotypy, average score ([1]; 5 mg/kg i.p., 120 min): 0.8 | Stereotypy, average score ([1]; 5 mg/kg i.p., 180 min): 1.1 | Stereotypy, average score ([1]; 5 mg/kg i.p., 240 min): 0.4 | Stereotypy, average score ([1]; 10 mg/kg i.p., 30 min): 0.5 | Stereotypy, average score ([1]; 10 mg/kg i.p., 60 min): 1.0 | Stereotypy, average score ([1]; 10 mg/kg i.p., 120 min): 1.8 | Stereotypy, average score ([1]; 10 mg/kg i.p., 180 min): 1.9 | Stereotypy, average score ([1]; 10 mg/kg i.p., 240 min): 1.5 | Stereotypy, average score ([1]; 20 mg/kg i.p., 30 min): 0.6 | Stereotypy, average score ([1]; 20 mg/kg i.p., 60 min): 1.2 | Stereotypy, average score ([1]; 20 mg/kg i.p., 120 min): 2.2 | Stereotypy, average score ([1]; 20 mg/kg i.p., 180 min): 2.4 | Stereotypy, average score ([1]; 20 mg/kg i.p., 240 min): 1.8 | Stereotypy (in words) [1]: causes stereotypy

CC1Cc2cc3c(cc2C(c2ccc(N)cc2)=NN1)OCO3 (centres unmarked) [Example 1, 1-(4-aminophenyl)-4-methyl-7,8-methylenedioxy-3,4-dihydro-5H-2,3-benzodiazepine]
Increase in motility ([2]; 3 mg/kg i.p.): 15% | Increase in motility ([2]; 10 mg/kg i.p.): 131% | Increase in motility ([2]; 30 mg/kg i.p.): 473% | Effect on motility or spontaneous motor activity (in words) ([2]; i.p.): increases the motility or spontaneous motor activity of mice and rats in a dose-dependent manner | Increase in motility ([3]; 10 mg/kg i.p.): 21% | Increase in motility ([3]; 20 mg/kg i.p.): 87% | Increase in motility ([3]; 25 mg/kg i.p.): 106% | Increase in motility ([3]; 30 mg/kg i.p.): 462% | Effect on motility or spontaneous motor activity (in words) ([3]; i.p.): increases the motility or spontaneous motor activity of mice and rats in a dose-dependent manner | Antagonism of haloperidol-induced decrease in SMA ([4]; 30 mg/kg, 15 min after haloperidol 0.5 mg/kg i.p.): significantly antagonized | Decrease in SMA ([4]; haloperidol 0.5 mg/kg i.p. + compound of Example 1 30 mg/kg i.p. 15 min later): 17.1% | Stereotypy, average score ([1]; 3.125 mg/kg i.p., 15 min): 0.3 | Stereotypy, average score ([1]; 3.125 mg/kg i.p., 30 min): 0.3 | Stereotypy, average score ([1]; 3.125 mg/kg i.p., 60 min): 0.1 | Stereotypy, average score ([1]; 3.125 mg/kg i.p., 90 min): 0 | Stereotypy, average score ([1]; 3.125 mg/kg i.p., 120 min): 0 | Stereotypy, average score ([1]; 3.125 mg/kg i.p., 180 min): 0 | Stereotypy, average score ([1]; 3.125 mg/kg i.p., 240 min): 0 | Stereotypy, average score ([1]; 6.25 mg/kg i.p., 15 min): 1.0 | Stereotypy, average score ([1]; 6.25 mg/kg i.p., 30 min): 1.3 | Stereotypy, average score ([1]; 6.25 mg/kg i.p., 60 min): 0.3 | Stereotypy, average score ([1]; 6.25 mg/kg i.p., 90 min): 0 | Stereotypy, average score ([1]; 6.25 mg/kg i.p., 120 min): 0 | Stereotypy, average score ([1]; 6.25 mg/kg i.p., 180 min): 0 | Stereotypy, average score ([1]; 6.25 mg/kg i.p., 240 min): 0 | Stereotypy, average score ([1]; 6.25 mg/kg p.o., 15 min): 0.7 | Stereotypy, average score ([1]; 6.25 mg/kg p.o., 30 min): 0.7 | Stereotypy, average score ([1]; 6.25 mg/kg p.o., 60 min): 0.6 | Stereotypy, average score ([1]; 6.25 mg/kg p.o., 90 min): 0 | Stereotypy, average score ([1]; 6.25 mg/kg p.o., 120 min): 0 | Stereotypy, average score ([1]; 6.25 mg/kg p.o., 180 min): 0 | Stereotypy, average score ([1]; 6.25 mg/kg p.o., 240 min): 0 | Stereotypy, average score ([1]; 12.5 mg/kg i.p., 15 min): 1.2 | Stereotypy, average score ([1]; 12.5 mg/kg i.p., 30 min): 1.3 | Stereotypy, average score ([1]; 12.5 mg/kg i.p., 60 min): 1.1 | Stereotypy, average score ([1]; 12.5 mg/kg i.p., 90 min): 1.0 | Stereotypy, average score ([1]; 12.5 mg/kg i.p., 120 min): 0 | Stereotypy, average score ([1]; 12.5 mg/kg i.p., 180 min): 0 | Stereotypy, average score ([1]; 12.5 mg/kg i.p., 240 min): 0 | Stereotypy, average score ([1]; 12.5 mg/kg p.o., 15 min): 0.4 | Stereotypy, average score ([1]; 12.5 mg/kg p.o., 30 min): 0.9 | Stereotypy, average score ([1]; 12.5 mg/kg p.o., 60 min): 1.4 | Stereotypy, average score ([1]; 12.5 mg/kg p.o., 90 min): 0.4 | Stereotypy, average score ([1]; 12.5 mg/kg p.o., 120 min): 0 | Stereotypy, average score ([1]; 12.5 mg/kg p.o., 180 min): 0 | Stereotypy, average score ([1]; 12.5 mg/kg p.o., 240 min): 0 | Stereotypy, average score ([1]; 25.0 mg/kg i.p., 15 min): 1.3 | Stereotypy, average score ([1]; 25.0 mg/kg i.p., 30 min): 1.5 | Stereotypy, average score ([1]; 25.0 mg/kg i.p., 60 min): 1.8 | Stereotypy, average score ([1]; 25.0 mg/kg i.p., 90 min): 1.6 | Stereotypy, average score ([1]; 25.0 mg/kg i.p., 120 min): 1.0 | Stereotypy, average score ([1]; 25.0 mg/kg i.p., 180 min): 0.8 | Stereotypy, average score ([1]; 25.0 mg/kg i.p., 240 min): 0.4 | Stereotypy, average score ([1]; 25.0 mg/kg p.o., 15 min): 0.7 | Stereotypy, average score ([1]; 25.0 mg/kg p.o., 30 min): 1.1 | Stereotypy, average score ([1]; 25.0 mg/kg p.o., 60 min): 1.5 | Stereotypy, average score ([1]; 25.0 mg/kg p.o., 90 min): 0.6 | Stereotypy, average score ([1]; 25.0 mg/kg p.o., 120 min): 0.6 | Stereotypy, average score ([1]; 25.0 mg/kg p.o., 180 min): 0.3 | Stereotypy, average score ([1]; 25.0 mg/kg p.o., 240 min): 0 | Stereotypy, average score ([1]; 50.0 mg/kg i.p., 15 min): 1.5 | Stereotypy, average score ([1]; 50.0 mg/kg i.p., 30 min): 2.1 | Stereotypy, average score ([1]; 50.0 mg/kg i.p., 60 min): 2.7 | Stereotypy, average score ([1]; 50.0 mg/kg i.p., 90 min): 2.4 | Stereotypy, average score ([1]; 50.0 mg/kg i.p., 120 min): 2.4 | Stereotypy, average score ([1]; 50.0 mg/kg i.p., 180 min): 1.7 | Stereotypy, average score ([1]; 50.0 mg/kg i.p., 240 min): 0.6 | Stereotypy, average score ([1]; 50.0 mg/kg p.o., 15 min): 1.7 | Stereotypy, average score ([1]; 50.0 mg/kg p.o., 30 min): 1.9 | Stereotypy, average score ([1]; 50.0 mg/kg p.o., 60 min): 2.3 | Stereotypy, average score ([1]; 50.0 mg/kg p.o., 90 min): 2.3 | Stereotypy, average score ([1]; 50.0 mg/kg p.o., 120 min): 1.9 | Stereotypy, average score ([1]; 50.0 mg/kg p.o., 180 min): 1.1 | Stereotypy, average score ([1]; 50.0 mg/kg p.o., 240 min): 0.2 | Stereotypy (in words) [1]: causes stereotypy. This effect develops earlier but it is somewhat weaker than the effect of bromocriptine | Inhibition in relation to control group ([5]; 6.25 mg/kg p.o.): 17% | Inhibition in relation to control group ([5]; 12.5 mg/kg p.o.): 50% | Inhibition in relation to control group ([5]; 25.0 mg/kg p.o.): 74% | ED50 ([5]; Mus musculus, po, range (9.5-19.1) printed in the next line): 13.5 mg/kg | Effect on oxotremorine-induced tremor (in words) ([5]; mice): significantly decreases the tremor | Effect on oxotremorine-induced salivation (in words) [6]: does not inhibit the oxotremorine-induced salivation | LD50 (Acute toxicity in mice; ip): 260 mg/kg | LD50 (Acute toxicity in mice; po): 300 mg/kg | LD50 (Acute toxicity in rats; ip): 250 mg/kg | LD50 (Acute toxicity in rats; po): 350 mg/kg | Emetic side-effect (Emetic side-effect): does not have the unfavourable side-effects of the known psychostimulants (emetic effect, proneness to dependence) | Withdrawal symptoms or signs of dependence [7]: does not have the unfavourable side-effects of the known psychostimulants (emetic effect, proneness to dependence)

O=C(CCCN1CCC(O)(c2ccc(Cl)cc2)CC1)c1ccc(F)cc1 [Haloperidol, 4-[4-(4-chlorophenyl)-4-hydroxy-1-piperidinyl]-1-(4-fluorophenyl)-1-butanone, reference compound]
Decrease in SMA ([4]; haloperidol alone, 0.5 mg/kg i.p., relative to controls): 62.6%

From patent US4835152A, “1-(4-Aminophenyl)-4-methyl-7,8-methylenedioxy-3,4-dihydro-5H-2,3-b enzodiazepine and acid addition salts thereof same” (Biogal Gyogyszergyar, priority 1986, dated 1989)
